Test results as given in US11512074B2, “Substituted diamino heterocyclic carboxamide compound and a composition containing the compound and use thereof” (Shenzhen TargetRx, Inc., priority 2018, dated 2022).
pIC50: −log10 of the molar value. Where two headings read alike, the source gives them in different places.

How the values were obtained:
[1] = Pharmacokinetic experiment in rats; format: in vivo, Sprague-Dawley rats; conditions: rat; for AUC(0-t) / Cmax / Tmax / half-life / AUC(0-inf) / MRT inf: male, Sprague-Dawley, plasma; for AUC(0-inf): read-out: AUCINF_pred; for MRT inf: read-out: MRTINF_pred
Procedure: Six male Sprague-Dawley rats, 7 to 8 weeks old, weighing approximately 210 g, were divided into 2 groups with 3 rats in each group. The pharmacokinetic differences of the compounds were compared after they were administered to the rats at a single dose through vein (in vein 3 mg/kg) or mouth (orally 10 mg/kg).
The rats were fed with standard feed and water, and fasted 16 hours before the experiment. The drugs were dissolved with PEG400 and dimethyl sulfoxide. The blood samples were collected from eyelids at the time point of 0.083, 0.25, 0.5, 1, 2, 4, 6, 8, 12 and 24 hours after administration.
The rats were anesthetized for a short time after inhaling ether, and 300 μL of blood samples was collected from the eyelids and put into test tubes, which contains 30 μL of 1% heparin salt solution. The test tubes were dried overnight at 60° C. prior to use. After the blood sample collection at the last time point, the rats were sacrificed after the ether anesthesia.
Immediately after the collection of the blood samples, the test tubes were gently inverted at least 5 times to ensure the fully mixing and placed on ice. The blood samples were centrifuged at 4° C., 5000 rpm for 5 minutes to separate the plasma from the red blood cells. 100 μL of plasma was pipetted into a clean plastic centrifuge tube, with the name of the compound and time point on it. The plasma was stored at −80° C. before analysis, and LC-MS/MS was used to determine the concentration of the compounds disclosed herein in plasma. Pharmacokinetic parameters were calculated based on the plasma concentrations of each animal at different time points.

MOLM-13 cells = assay: Inhibition of cell MOLM-13 proliferation (CTG assay); format: cell-based; conditions: Homo sapiens, 72 hours, read-out: MOLM-1 IC50
Description: (§1) Cell MV-4-11 (ATCC, Cat. No. CRL-9591), cell MOLM-13 (COBIOER, Cat. No. CBP60678), RPMI-1640 (GIBCO, Cat. No. A10491-01), penicillin-streptomycin (GIBCO, Cat. No. 15140-122), fetal bovine serum (GIBCO, Cat. No. 10099-141), phosphate buffer solution PBS (GIBCO, Cat. No. 10010-031), DMSO (Sigma, Cat. No. D8418-1L), CelltiterGlo Assay kit (CTG) (Promega, Cat. No. G7573), 96-well plate with transparent flat bottom and black walls (PerkinElmer, Cat. No. 6005680-50), plate shaker (QILINBEIER, Cat. No. B-9002), centrifuge (Eppendorf, Cat. No. 5804R), CO2 incubator (Thermo Scientific, Cat. No. 371), microscope (OLYMPUS Cat. No. CKX41), multi-plate reader (PerkinElmer, Cat. No. EnVision).
(§2) (2) Preparation of Cell Suspension • a) The medium was collected from the culture bottle and centrifuged at 1000 rpm for 5 min. • b) The supernatant was discarded, and the cells were resuspended in medium containing 10% fetal bovine serum, and counted to prepare a cell suspension (cell viability was greater than 90%). • c) The cell suspension was added into a 96-well plate, with […] in each well, namely 5000 MV-4-11 cells/well; 5000 MOLM-13 cells/well. • d) The cell plate was cultured overnight in a 37° C., 5% CO2 incubator.
(§3) Dilution of Compounds in DMSO: • a) MV-4-11 cells: The compounds were diluted with DMSO from 10 mM to 60 uM, and then subjected to a 3-fold serial gradient dilution in DMSO from 60 uM, resulting in 9 concentrations. • b) MOLM-13 cells: The compounds were diluted with DMSO from 10 mM to 200 uM, and then subjected to a 3-fold serial gradient dilution in DMSO from 200 uM, resulting in 9 concentrations. • c) Compound Taxol was diluted with DMSO from 10 mM to 200 uM, and then subjected to a 3-fold serial gradient dilution in DMSO from 200 uM, resulting in 9 concentrations.
(§4) (4) Treatment of Cells with Compounds (after the Overnight Incubation of the Cell Plate) • a) Each well was replenished with 99 μl of growth medium containing 10% FBS, and then 1 μl of the diluted compound was added to the well. The concentration of DMSO was 0.5%. • b) Concentrations of the tested compounds were: MV-4-11 cells: 300, 100, 33.3, 11.1, 3.7, 1.23, 0.41, 0.137, 0.046, 0 [nM]. • MOLM-13 cells: 1000, 333.3, 111.1, 37.04, 12.35, 4.1, 1.37, 0.46, 0.15, 0 [nM]. • c) Concentrations of control compound Taxol were: 1000, 333.3, 111.1, 37.04, 12.35, 4.12, 1.37, 0.46, 0.15, 0 [nM]. • d) The cell plate was placed in the incubator for 72 hours.
(§5) (5) CTG Assay • a) The test plate was placed at room temperature and equilibrated for 30 minutes, and 60 μl of the culture medium was discarded. • b) 60 μl of CTG reagent (CelltiterGlo kit) was added, and the plate was placed on a rapid plate shaker to shake for 2 min, and then let it stand at room temperature for 20 min. • c) Envision was used to read the values.
(§6) IC50 values were calculated using GraphPad Prism 6 software. The IC50 (half inhibitory concentration) values of the compounds were obtained by the following non-linear fitting formula. Y=Bottom+(Top−Bottom)/(1+10^((Log IC50−X)*HillSlope)) • X: Log value of the compound concentration • Y: Inhibition rate (% inhibition) % inhibition (inhibition rate)=100*(value of the High Control-value of the test compound well)/(value of the High Control-value of the Low Control)

MV-4-11 cells = assay: Inhibition of cell MV-4-11 proliferation (CTG assay); format: cell-based; conditions: Homo sapiens, MV4-11, 72 hours
Description: as §1, §2, §3, §4, §5, §6

Ba/F3 FLT3-ITD cells = assay: Inhibition of Ba/F3 FLT3-ITD cell proliferation (CTG); format: cell-based; conditions: 72 hours, read-out: BaF3 [FLT3-ITD] IC50
Procedure: (§7) Cell lines were cultured under the condition of 37° C., 5% CO2 and 95% humidity: cell line Ba/F3 parental (suspended, 3000 cells/well, medium was RPMI-1640+10% FBS+8 ng/ml IL-3), cell line Ba/F3 FLT3-ITD (suspended, 3000 cells/well, medium was RPMI-1640+10% FBS)
(§8) Reagents and materials: Fetal bovine serum (FBS, GBICO, Cat. No. 10099-141), CellTiter-Glo® Luminescent Cell Viability Assay (Promega, Cat. No. G7572), 96-well plate with transparent flat bottom and black walls (Corning®, Cat. No. 3603), control compound AC220 (Selleck, Cat. No. S1526).
(§9) Cell Culture and Inoculation: • 1. Cells in the logarithmic growth phase were harvested and counted using a platelet counter. The cell viability was determined by trypan blue exclusion method to ensure that the cell viability was greater than 90%; • 2. The cell concentration was adjusted and 90 μL of the cell suspension was added into a 96-well plate respectively; • 3. The cells in the 96-well plate were cultured overnight under the condition of 37° C., 5% CO2 and 95% humidity.
(§10) Drug Dilution and Dosing: • 1. The 10-fold drug solutions were prepared with a maximum concentration of 100 μM, which was diluted using a 3.16-fold serial gradient dilution, resulting in 9 concentrations. 10 μL of the drug solutions was added to each well of the 96-well plate inoculated with Ba/F3 parental cells; and each drug concentration was set in triplicate. • 2. The 10-fold drug solutions were prepared with a maximum concentration of 10 μM, which was diluted using a 3.16-fold serial gradient dilution, resulting in 9 concentrations. 10 μL of the drug solutions was added to each well of the 96-well plate inoculated with Ba/F3 FLT3-ITD cells; and each drug concentration was set in triplicate. • 3. The cells in the 96-well plate with drugs were cultured at 37° C., 5% CO2 and 95% humidity for 72 hours, and then CTG analysis was carried out.
(§11) Plate Reading at the End Point: • 1. CTG reagent was thawed and the cell plate was equilibrated to room temperature for 30 minutes; • 2. Equal volume of the CTG solution was added to each well; • 3. The cell plate was shaked on the orbital shaker for 5 minutes to lyse the cells; • 4. The cell plate was placed at room temperature for 20 minutes to stabilize the cold light signal; • 5. The cold light values were read.
(§12) GraphPad Prism 8.0 software was used to analyze the data, and the data was fitted using the non-linear S-curve regression to get a dose-effect curve, and IC50 values were calculated. Cell viability (%)=(Lum of test drug−Lum of medium control)/(Lum of cell control−Lum of medium control)×100%.

Ba/F3 parental cells = assay: Inhibition of Ba/F3 parental cell proliferation (CTG); format: cell-based; conditions: Mus musculus, BaF3, 72 hours, with IL-3
Procedure: as §7, §8, §9, §10, §11, §12

| AUC(0-t) ([1]; IV 3 mg/kg) | Cmax ([1]; IV 3 mg/kg) | Tmax ([1]; IV 3 mg/kg) | half-life ([1]; IV 3 mg/kg) | AUC(0-inf) ([1]; IV 3 mg/kg) | MRT inf ([1]; IV 3 mg/kg) | AUC(0-t) ([1]; PO 10 mg/kg) | Cmax ([1]; PO 10 mg/kg) | Tmax ([1]; PO 10 mg/kg) | half-life ([1]; PO 10 mg/kg) | AUC(0-inf) ([1]; PO 10 mg/kg) | MRT inf ([1]; PO 10 mg/kg) | Vz_pred ([1]; IV 3 mg/kg) | Vz_pred ([1]; PO 10 mg/kg) | F ([1]; PO 10 mg/kg vs IV 3 mg/kg) | pIC50 (MOLM-13 cells) | pIC50 (MV-4-11 cells) | pIC50 (Ba/F3 FLT3-ITD cells) | Compound | pIC50 (Ba/F3 parental cells) |
| --- | --- | --- | --- | --- | --- | --- | --- | --- | --- | --- | --- | --- | --- | --- | --- | --- | --- | --- | --- |
| 639 ng·h/mL | 138 ng/mL | 0.08 h | 4.52 h | 651 ng·h/mL | 4.56 h | 666 ng·h/mL | 61.2 ng/mL | 4 h | 4.07 h | 687 ng·h/mL | 8.11 h | 30.45 L/kg | 87.60 L/kg | 31.26% | 7.89 | 8.72 | – | [2H]C([2H])([2H])C([2H])([2H])c1nc(C(N)=O)c(Nc2ccc(N3CCC(N4CCN(C)CC4)CC3)c(OC)c2)nc1NC1CCOCC1 [Compound T-4, 6-(ethyl-d5)-3-((3-methoxy-4-(4-(4-methylpiperazin-1-yl)piperidin-1-yl)phenyl)amino)-5-((tetrahydro-2H-pyran-4-yl)amino)pyrazine-2-carboxamide] | – |
| – | – | – | – | – | – | – | – | – | – | – | – | – | – | – | 7.92 | 8.68 | 7.16 | [2H]C([2H])([2H])Oc1cc(Nc2nc(NC3CCOCC3)c(C([2H])([2H])C([2H])([2H])[2H])nc2C(N)=O)ccc1N1CCC(N2CCN(C)CC2)CC1 [Compound T-6, 6-(ethyl-d5)-3-((3-(methoxy-d3)-4-(4-(4-methylpiperazin-1-yl)piperidin-1-yl)phenyl)amino)-5-((tetrahydro-2H-pyran-4-yl)amino)pyrazine-2-carboxamide] | < 5.00 |
| – | – | – | – | – | – | – | – | – | – | – | – | – | – | – | 7.90 | 8.79 | 7.27 | [2H]C1([2H])CN(c2ccc(Nc3nc(NC4CCOCC4)c(CC)nc3C(N)=O)cc2OC)CC([2H])([2H])C1N1CCN(C)CC1 [Compound T-7, 6-ethyl-3-((3-methoxy-4-(4-(4-methylpiperazin-1-yl)piperidin-1-yl-3,3,5,5-d4)phenyl)amino)-5-((tetrahydro-2H-pyran-4-yl)amino)pyrazine-2-carboxamide] | 5.07 |
